# Assay results taken from PubChem BioAssay AID194 (DTP/NCI, 2004).
# Where “and” joins values, the source holds several entries; their conditions need not be identical. Identical values can stand only once. Results filed as inconclusive are left out.
# System: BDF1 mice, B16 melanoma s.c., survival/tumor T/C
# Test: NCI In Vivo Anticancer Drug Screen. Data for tumor model B16 Melanoma (subcutaneous) in B6D2F1 (BDF1) mice
# Conditions: endpoint: median survival time, higher = longer survival
# Protocol: The antitumor activity of compounds was measured in mice bearing transplantable tumors. Survival or tumor size were measured and the results are expressed as the measurement made in the treated group (T) divided by the measurement made in the vehicle treated control group (C). The tumor model used in this assay is B16 Melanoma (subcutaneous) in B6D2F1 (BDF1) mice
structure (smiles),measurement,setting,value
O=[N+]([O-])c1ccc(/C=N/c2ncc(Br)s2)o1,T/C,"dose: 1.56 mg/kg/injection, schedule: Q01DX009 (ip), vehicle: Klucel (hydroxypropylcellulose) (HPC)",123 % of control
same,T/C,"dose: 3.12 mg/kg/injection, schedule: Q01DX009 (ip), vehicle: Klucel (hydroxypropylcellulose) (HPC)",92 % of control
same,T/C,"dose: 3.13 mg/kg/injection, schedule: Q01DX009 (ip), vehicle: Klucel (hydroxypropylcellulose) (HPC)",121 % of control
same,T/C,"dose: 6.25 mg/kg/injection, schedule: Q01DX009 (ip), vehicle: Klucel (hydroxypropylcellulose) (HPC)",110 % of control and 111 % of control
same,T/C,"dose: 12.5 mg/kg/injection, schedule: Q01DX009 (ip), vehicle: Klucel (hydroxypropylcellulose) (HPC)",114 % of control
CCCCS(=O)CC(CO)NC(=O)/C=C/c1c(C)[nH]c(=O)[nH]c1=O (stereo not given),T/C,"dose: 1.25 mg/kg/injection, schedule: Q01DX009 (ip), vehicle: water",100 % of control
same,T/C,"dose: 5.0 mg/kg/injection, schedule: Q01DX009 (ip), vehicle: water",100 % of control
same,T/C,"dose: 10.0 mg/kg/injection, schedule: Q01DX009 (ip), vehicle: water",116 % of control
O=NN(CCF)C(=O)NC1CCC(=O)NC1=O (stereo not given),T/C,"dose: 3.11 mg/kg/injection, schedule: Q01DX007 (ip), vehicle: Klucel (hydroxypropylcellulose) (HPC)",121 % of control
same,T/C,"dose: 5.18 mg/kg/injection, schedule: Q01DX007 (ip), vehicle: Klucel (hydroxypropylcellulose) (HPC)",124 % of control
same,T/C,"dose: 8.64 mg/kg/injection, schedule: Q01DX007 (ip), vehicle: Klucel (hydroxypropylcellulose) (HPC)",164 % of control
O=c1[nH]c(=O)n([C@H]2CCCO2)cc1F,T/C,"dose: 23.0 mg/kg/injection, schedule: Q01DX009 (ip), vehicle: saline",101 % of control
same,T/C,"dose: 39.0 mg/kg/injection, schedule: Q01DX009 (ip), vehicle: saline",100 % of control
same,T/C,"dose: 65.0 mg/kg/injection, schedule: Q01DX009 (ip), vehicle: saline",100 % of control
same,T/C,"dose: 108.0 mg/kg/injection, schedule: Q04DX003 (ip), vehicle: saline",118 % of control
same,T/C,"dose: 180.0 mg/kg/injection, schedule: Q04DX003 (ip), vehicle: saline",107 % of control
CC(=O)O[C@]1(C(C)=O)CC[C@H]2[C@@H]3C[C@H](C)C4=CC(=O)CC[C@]4(C)[C@H]3CC[C@@]21C,T/C,"dose: 100.0 mg/kg/injection, schedule: Q01DX009 (ip), vehicle: Klucel (hydroxypropylcellulose) (HPC)",111 % of control and 112 % of control
same,T/C,"dose: 200.0 mg/kg/injection, schedule: Q01DX009 (ip), vehicle: Klucel (hydroxypropylcellulose) (HPC)",86 % of control and 102 % of control
same,T/C,"dose: 400.0 mg/kg/injection, schedule: Q01DX009 (ip), vehicle: Klucel (hydroxypropylcellulose) (HPC)",96 % of control and 102 % of control
same,T/C,"dose: 800.0 mg/kg/injection, schedule: Q01DX009 (ip), vehicle: Klucel (hydroxypropylcellulose) (HPC)",104 % of control and 111 % of control
FC(F)c1nc2nc(Cl)c(Cl)nc2[nH]1,T/C,"dose: 2.0 mg/kg/injection, schedule: Q01DX009 (ip), vehicle: Klucel (hydroxypropylcellulose) (HPC)",106 % of control
same,T/C,"dose: 4.0 mg/kg/injection, schedule: Q01DX009 (ip), vehicle: Klucel (hydroxypropylcellulose) (HPC)",114 % of control
same,T/C,"dose: 8.0 mg/kg/injection, schedule: Q01DX009 (ip), vehicle: Klucel (hydroxypropylcellulose) (HPC)",97 % of control
same,T/C,"dose: 8.0 mg/kg/injection, schedule: Q01DX009 (ip), vehicle: other",157 % of control
same,T/C,"dose: 16.0 mg/kg/injection, schedule: Q01DX009 (ip), vehicle: Klucel (hydroxypropylcellulose) (HPC)",102 % of control
same,T/C,"dose: 16.0 mg/kg/injection, schedule: Q01DX009 (ip), vehicle: other",117 % of control
same,T/C,"dose: 32.0 mg/kg/injection, schedule: Q01DX009 (ip), vehicle: Klucel (hydroxypropylcellulose) (HPC)",121 % of control
same,T/C,"dose: 32.0 mg/kg/injection, schedule: Q01DX009 (ip), vehicle: other",89 % of control
O=NN(CCF)C(=O)NC1CCSCC1,T/C,"dose: 31.0 mg/kg/injection, schedule: Q01DX001 (ip), vehicle: saline with Tween-80",177 % of control
same,T/C,"dose: 41.0 mg/kg/injection, schedule: Q01DX001 (ip), vehicle: saline with Tween-80",186 % of control
same,T/C,"dose: 55.0 mg/kg/injection, schedule: Q01DX001 (ip), vehicle: saline with Tween-80",196 % of control
CCSC(=O)N1c2ccc(OC)cc2C=CC1C#N (stereo not given),T/C,"dose: 100.0 mg/kg/injection, schedule: Q01DX009 (ip), vehicle: saline with Tween-80",109 % of control
same,T/C,"dose: 200.0 mg/kg/injection, schedule: Q01DX009 (ip), vehicle: saline with Tween-80",114 % of control
O=NN(CCCl)C(=O)NCCO,T/C,"dose: 2.59 mg/kg/injection, schedule: Q01DX007 (ip), vehicle: water",102 % of control
same,T/C,"dose: 4.32 mg/kg/injection, schedule: Q01DX007 (ip), vehicle: water",98 % of control
